Source: patent US8178699B2, “Modulators of CCR9 receptor and methods of use thereof” (Pfizer Inc., priority 2008, dated 2012)
Counter-ions that a name gives are not always drawn.

target: T1, human CCR9 receptor (Homo sapiens, UniProt P51686); test: CCR9 FLIPR/FlexStation Assay (inhibition of TECK induced calcium mobilization); format: cell-based; conditions: CCR9 antagonist activity; TECK induced calcium mobilization in CCR9-Flp-CHO cells stably over expressing human CCR9; rhTECK at EC70; read-out: Binding IC50
T1 construct: expressed in transfected cells
T1 sequence (P51686 1-369): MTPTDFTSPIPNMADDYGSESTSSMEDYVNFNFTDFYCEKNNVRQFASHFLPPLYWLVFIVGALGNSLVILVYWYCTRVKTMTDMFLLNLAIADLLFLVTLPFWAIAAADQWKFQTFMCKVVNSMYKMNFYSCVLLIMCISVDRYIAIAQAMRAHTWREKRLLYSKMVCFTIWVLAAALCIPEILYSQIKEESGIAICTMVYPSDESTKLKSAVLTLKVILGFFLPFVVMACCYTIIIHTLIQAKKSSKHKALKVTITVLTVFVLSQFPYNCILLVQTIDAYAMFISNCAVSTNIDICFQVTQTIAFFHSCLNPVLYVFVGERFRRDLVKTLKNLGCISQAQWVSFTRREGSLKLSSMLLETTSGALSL
Description: Exemplary methods are described in US Publication Nos. US2004/0180892 and US2005/0049286, which are incorporated herein by reference. An exemplary assay for determining CCR9 antagonist activity of the compounds provided herein is CCR9 FLIPR/FlexStation Assay. In certain embodiments, the following protocol is used for the assay:
CCR9 FLIPR/FlexStation Assay Protocol
Calcium assay in FLIPR/FlexStation determines inhibitors of TECK induced calcium mobilization in CCR9-Flp-CHO cells that stably over express human CCR9 receptor. CCR9-Flp-CHO cells are seeded at 25,000 cells/well in a clear bottom, black wall 96-well plate (Greiner #655090) one day prior to assay. Cells are grown in a tissue culture incubator at 37° C. with 5% CO2 for 18 to 24 hours.
Wash buffer and dye loading buffer are prepared fresh each time the assay is performed. Wash buffer is prepared according to the following protocol: 20 ml 10×HBSS (Invitrogen Gibco #14065-056), 4 ml 1M HEPES (Sigma H3784), 174 ml sterile deionized water; then add 140 mg probenecid (Sigma P8761) dissolved in 2 ml 1M NaOH (Fisher S318) to solution and pH to 7.4. This wash buffer contains 1×HBSS, 20 mM HEPES and 2.5 mM probenecid. For one 96-well plate, dye loading buffer is prepared as following: 11 ml wash buffer, 44 μl Fluo-4/pluoronic acid mix (prepared from 22 μL aliquot of 2 mM Fluo-4 (Molecular Probes F14202, 1 mg/tube)+22 μl 20% pluronic F-127 (Molecular Probes P3000MP).
Cells are loaded with dye according to the protocol below:
1. Prepare wash buffer with 1×HBSS/HEPES at room temperature
2. Prepare loading buffer (keep in dark)
3. Aspirate culture media and wash with 100 μl wash buffer per well×1
4. Add 100 μl dye loading buffer to each well
5. Incubate at 37° C. for 30 minutes
6. Aspirate loading buffer
7. Wash with 100 μl wash buffer per well×3
8. Add 100 μl wash buffer per well
9. Incubate at 37° C. for 30 minutes
10. Assay plate with FLIPR or FlexStation
10 mM stock compounds in DMSO are prepared and diluted in DMSO to 1 mM. Compounds are diluted in wash buffer to make 8 point series dilutions containing same final concentration of DMSO (1%). Compounds are tested in duplicate wells for each point. Ligand rhTECK (R&D Systems 334-TK) was diluted to 6× of its EC70 with wash buffer. Appropriate amount of 6× ligand is added to each well. Data is analyzed using XLfit3 software to calculate IC50 value of antagonist activity for each compound.
CCR9 antagonist activity of exemplary compounds was determined using CCR9 FLIPR/FlexStation Assay as described in Section 4.4 and is provided in Table 1 below. The IC50 for the compounds are represented as follows: A≦100 nM; B>100-500 nM; C>500 nM.

| Compound | IC50 |
| --- | --- |
| CC(C)(C)c1ccc(S(=O)(=O)Nc2ccsc2C(=O)O)c(N2CCOCC2)c1 [Example 3, 3-[4-tert-butyl-2-(morpholin-4-yl)phenylsulfonamido]thiophene-2-carboxylic acid] | 0.1 to 0.5 µM |
| CC(C)(C)c1ccc(S(=O)(=O)Nc2ccsc2C(=O)O)c(-c2cncnc2)c1 [Example 5, 3-[4-tert-butyl-2-(pyrimidin-5-yl)phenylsulfonamido]thiophene-2-carboxylic acid, disodium salt] | > 0.5 µM |
| CCCCCc1cc(C(C)(C)C)ccc1S(=O)(=O)Nc1ccsc1C(=O)O [Example 58, 3-(4-tert-butyl-2-pentylphenylsulfonamido)thiophene-2-carboxylic acid, disodium salt] | 0.1 to 0.5 µM |
| COCCCc1cc(C(C)(C)C)ccc1S(=O)(=O)Nc1ccsc1C(=O)O [Example 59, 3-[4-tert-butyl-2-(3-methoxypropyl)phenylsulfonamido]thiophene-2-carboxylic acid, disodium salt] | 0.1 to 0.5 µM |
| O=C(O)c1sccc1NS(=O)(=O)c1ccc(Br)cc1 [Example 20, 3-(4-bromophenylsulfonamido)thiophene-2-carboxylic acid, disodium salt] | > 0.5 µM |
| O=C(O)c1sccc1NS(=O)(=O)c1ccc(N2CCOCC2)cc1 [Example 23, 3-[(4-morpholin-4-yl)phenylsulfonamido]thiophene-2-carboxylic acid, disodium salt] | > 0.5 µM |
| O=C(O)c1sccc1NS(=O)(=O)c1c(Cl)cc(C(F)(F)F)cc1Cl [Example 51, 3-[2,6-dichloro-4-(trifluoromethyl)phenylsulfonamido]thiophene-2-carboxylic acid, disodium salt] | > 0.5 µM |
| CC(C)(C)c1ccc(S(=O)(=O)Nc2c(C(=O)O)sc3ncccc23)cc1 [Example 26, 3-(4-tert-butylphenylsulfonamido)thieno[2,3-b]pyridine-2-carboxylic acid, disodium salt] | > 0.5 µM |
| CC(C)c1ccc(S(=O)(=O)Nc2ccsc2C(=O)O)cc1 [Example 37, 3-[4-(iso-propylphenyl)sulfonamido]thiophene-2-carboxylic acid, disodium salt] | 0.1 to 0.5 µM |
| O=C(O)c1sccc1NS(=O)(=O)c1ccc2c(c1)CCC2 [Example 33, 3-(2,3-dihydro-1H-indene-5-sulfonamido)thiophene-2-carboxylic acid, disodium salt] | > 0.5 µM |
| O=C(O)c1sccc1NS(=O)(=O)c1ccc2ccccc2c1 [Example 17, 3-(Naphthalene-2-sulfonamido)thiophene-2-carboxylic acid, disodium salt] | > 0.5 µM |
| COc1cc(S(=O)(=O)Nc2ccsc2C(=O)O)c(Cl)cc1F [Example 63, 3-(2-chloro-4-fluoro-5-methoxyphenylsulfonamido)thiophene-2-carboxylic acid, disodium salt] | > 0.5 µM |
| CC(C)(C)c1ccc(S(=O)(=O)Nc2ccsc2C(=O)O)c(Oc2ccccc2)c1 [Example 28, 3-(4-tert-butyl-2-phenoxyphenylsulfonamido)thiophene-2-carboxylic acid, disodium salt] | > 0.5 µM |
| CC(C)(C)c1ccc(S(=O)(=O)Nc2ccsc2C(=O)O)c(-c2cccc(F)c2)c1 [Example 54, 3-(5-tert-butyl-3′-fluorobiphenyl-2-ylsulfonamido)thiophene-2-carboxylic acid, disodium salt] | 0.1 to 0.5 µM |
| CC(C)(C)c1ccc(S(=O)(=O)Nc2ccsc2C(=O)O)c(F)c1 [Example 29, 3-(4-tert-butyl-2-fluorophenylsulfonamido)thiophene-2-carboxylic acid, disodium salt] | ≤ 0.1 µM |
| COc1cc(C(C)(C)C)ccc1S(=O)(=O)Nc1ccsc1C(=O)O [Example 8, 3-(tert-butyl-2-methoxyphenylsulfonamido)thiophene-2-carboxylic acid, disodium salt] | ≤ 0.1 µM |
| O=C(O)c1sccc1NS(=O)(=O)c1ccc(-n2cccn2)cc1 [Example 31, 3-[4-(1H-pyrazol-1-yl)phenylsulfonamido]thiophene-2-carboxylic acid, disodium salt] | > 0.5 µM |
| CCCOc1ccccc1-c1cccc(S(=O)(=O)Nc2ccsc2C(=O)O)c1 [Example 44, 3-(2′-propoxybiphenyl-3-ylsulfonamido)thiophene-2-carboxylic acid, disodium salt] | > 0.5 µM |
| CC(C)(C)c1ccc(S(=O)(=O)Nc2c(C(=O)O)sc3ccc(F)cc23)cc1 [Example 25, 3-(4-tert-butylphenylsulfonamido)-5-fluorobenzo[b]thiophene-2-carboxylic acid, disodium salt] | > 0.5 µM |
| CCC(C)(C)c1ccc(S(=O)(=O)Nc2ccsc2C(=O)O)cc1 [Example 18, 3-(4-(1,1-Dimethylpropyl)phenylsulfonamido)thiophene-2-carboxylic acid, sodium salt] | 0.1 to 0.5 µM |
| CC(C)(C)c1ccc(S(=O)(=O)Nc2ccsc2C(=O)O)c(-c2ccoc2)c1 [Example 60, 3-[4-tert-butyl-2-(furan-3-yl)-phenylsulfonamido]thiophene-2-carboxylic acid, disodium salt] | 0.1 to 0.5 µM |
| CC(C)(C)c1ccc(S(=O)(=O)Nc2ccsc2C(=O)O)c(/C=C/c2ccccc2)c1 [Example 7, 3-(4-tert-butyl-2-styrylphenylsulfonamido)thiophene-2-carboxylic acid, disodium salt] | 0.1 to 0.5 µM |

Other lines, results leading:

| IC50 | Compound |
| --- | --- |
| ≤ 0.1 µM | CCCc1cc(C(C)(C)C)ccc1S(=O)(=O)Nc1ccsc1C(=O)O [Example 56, 3-(4-tert-butyl-2-propylphenylsulfonamido)thiophene-2-carboxylic acid, disodium salt] |
| ≤ 0.1 µM | CC(C)(C)c1ccc(S(=O)(=O)Nc2ccsc2C(=O)O)c(CCC2CC2)c1 [Example 57, 3-[4-tert-Butyl-2-(2-cyclopropylethyl)phenylsulfonamido]thiophene-2-carboxylic acid, disodium salt] |
| ≤ 0.1 µM | CC(C)(C)c1ccc(S(=O)(=O)Nc2ccsc2C(=O)O)c(Br)c1 [Example 1, 3-(2-bromo-4-tert-butylphenylsulfonamido)thiophene-2-carboxylic acid, sodium salt] |
| ≤ 0.1 µM | CCC(C)c1ccc(S(=O)(=O)Nc2ccsc2C(=O)O)cc1 (stereo not shown) [Example 14, 3-(4-sec-butylphenylsulfonamido)thiophene-2-carboxylic acid, disodium salt] |
| ≤ 0.1 µM | CC(C)(C)c1ccc(S(=O)(=O)Nc2ccsc2C(=O)O)c(/C=C/C2CC2)c1 [Example 52, 3-[4-tert-butyl-2-(2-cyclopropylvinyl)phenylsulfonamido]thiophene-2-carboxylic acid, disodium salt] |
| ≤ 0.1 µM | CC(C)(C)c1ccc(S(=O)(=O)Nc2ccsc2C(=O)O)cc1 [Example 16, 3-(4-tert-butylphenylsulfonamido)thiophene-2-carboxylic acid, disodium salt] |
| ≤ 0.1 µM | Cc1cc(C(C)(C)C)ccc1S(=O)(=O)Nc1ccsc1C(=O)O [Example 13, 3-(4-tert-butyl-2-methylphenylsulfonamido)thiophene-2-carboxylic acid, disodium salt] |
| ≤ 0.1 µM | O=C(O)c1sccc1NS(=O)(=O)c1ccc(C(F)(F)F)cc1Br [Example 27, 3-[2-bromo-4-(trifluoromethyl)phenylsulfonamido]thiophene-2-carboxylic acid, disodium salt] |
| ≤ 0.1 µM | CCCCc1ccc(S(=O)(=O)Nc2ccsc2C(=O)O)c(Cl)c1 [Example 19, 3-(4-butyl-2-chlorophenylsulfonamido)thiophene-2-carboxylic acid, disodium salt] |
